Results: ChEMBL document CHEMBL1201862, “PubChem BioAssay data set” (2004)
Active and inactive are the calls of the source.

Key:
[1] = insulin promoter down-regulators in MIN6 cells, imaging, high-content screening, mouse beta cells (AID 1628); format: functional
[2] = cytotoxicity in MIN6 insulinoma cells, dose response, cytotoxicity control, cell-based, mouse insulinoma (AID 2122); format: functional;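 note: confirmatory high-throughput counterscreen run to flag cytotoxic compounds; mouse MIN-6 beta cells carrying an insulin promoter eGFP reporter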
[3] = THP-1 cell cytotoxicity, dose response, cytotoxicity control for non-replicating M. tuberculosis project (AID 489025); format: functional
[4] = HepG2 cell cytotoxicity, dose response, cytotoxicity control for non-replicating M. tuberculosis project (AID 489018); format: functional; conditions: Mycobacterium tuberculosis
[5] = cells; format: functional
[6] = Shn3 3'UTR reporter inhibitors, dose response, cell-based, Clone20 osteoblasts, firefly luciferase, cherry-picked (AID 624132); format: functional;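 note: firefly luciferase luminescence from reporter carrying the Shn3 3'UTR in osteoblasts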
[7] = HepG2 cell cytotoxicity, dose response, cytotoxicity control for Shn3 inhibitor project, CellTiter-Glo, cherry-picked (AID 624134); format: functional, cell-based
[8] = control 3'UTR Renilla luciferase suppression, dose response, counter-screen for Shn3 inhibitor project, cell-based, Clone20-Shn3RL, cherry-picked (AID 624133); format: functional
[9] = biological target: T1, Streptokinase A (Streptococcus pyogenes serotype M1, UniProt P10520); assay: S. pyogenes streptokinase expression inhibitors, potency, dose response, plasminogen activation absorbance, OD405 (AID 1914); format: functional, Streptococcus pyogenes M1 GAS;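 note: secreted streptokinase activity via plasminogen activation per viability signal from cell pellet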
T1 sequence (P10520 whole entry): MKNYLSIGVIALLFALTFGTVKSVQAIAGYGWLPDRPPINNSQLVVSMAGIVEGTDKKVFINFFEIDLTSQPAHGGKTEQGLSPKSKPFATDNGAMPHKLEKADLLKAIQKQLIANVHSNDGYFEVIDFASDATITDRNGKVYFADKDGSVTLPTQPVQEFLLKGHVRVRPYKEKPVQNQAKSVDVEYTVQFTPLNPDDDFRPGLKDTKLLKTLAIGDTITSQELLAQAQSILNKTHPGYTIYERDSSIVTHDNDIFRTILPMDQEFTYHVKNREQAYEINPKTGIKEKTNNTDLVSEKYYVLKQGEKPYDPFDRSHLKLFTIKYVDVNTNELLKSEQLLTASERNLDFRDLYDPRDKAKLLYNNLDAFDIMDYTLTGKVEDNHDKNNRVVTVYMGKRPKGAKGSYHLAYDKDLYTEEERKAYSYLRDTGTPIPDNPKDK

[10] = biological target: T2, Apoptotic protease-activating factor 1 (Homo sapiens, UniProt O14727); format: functional
T2 sequence (O14727 whole entry): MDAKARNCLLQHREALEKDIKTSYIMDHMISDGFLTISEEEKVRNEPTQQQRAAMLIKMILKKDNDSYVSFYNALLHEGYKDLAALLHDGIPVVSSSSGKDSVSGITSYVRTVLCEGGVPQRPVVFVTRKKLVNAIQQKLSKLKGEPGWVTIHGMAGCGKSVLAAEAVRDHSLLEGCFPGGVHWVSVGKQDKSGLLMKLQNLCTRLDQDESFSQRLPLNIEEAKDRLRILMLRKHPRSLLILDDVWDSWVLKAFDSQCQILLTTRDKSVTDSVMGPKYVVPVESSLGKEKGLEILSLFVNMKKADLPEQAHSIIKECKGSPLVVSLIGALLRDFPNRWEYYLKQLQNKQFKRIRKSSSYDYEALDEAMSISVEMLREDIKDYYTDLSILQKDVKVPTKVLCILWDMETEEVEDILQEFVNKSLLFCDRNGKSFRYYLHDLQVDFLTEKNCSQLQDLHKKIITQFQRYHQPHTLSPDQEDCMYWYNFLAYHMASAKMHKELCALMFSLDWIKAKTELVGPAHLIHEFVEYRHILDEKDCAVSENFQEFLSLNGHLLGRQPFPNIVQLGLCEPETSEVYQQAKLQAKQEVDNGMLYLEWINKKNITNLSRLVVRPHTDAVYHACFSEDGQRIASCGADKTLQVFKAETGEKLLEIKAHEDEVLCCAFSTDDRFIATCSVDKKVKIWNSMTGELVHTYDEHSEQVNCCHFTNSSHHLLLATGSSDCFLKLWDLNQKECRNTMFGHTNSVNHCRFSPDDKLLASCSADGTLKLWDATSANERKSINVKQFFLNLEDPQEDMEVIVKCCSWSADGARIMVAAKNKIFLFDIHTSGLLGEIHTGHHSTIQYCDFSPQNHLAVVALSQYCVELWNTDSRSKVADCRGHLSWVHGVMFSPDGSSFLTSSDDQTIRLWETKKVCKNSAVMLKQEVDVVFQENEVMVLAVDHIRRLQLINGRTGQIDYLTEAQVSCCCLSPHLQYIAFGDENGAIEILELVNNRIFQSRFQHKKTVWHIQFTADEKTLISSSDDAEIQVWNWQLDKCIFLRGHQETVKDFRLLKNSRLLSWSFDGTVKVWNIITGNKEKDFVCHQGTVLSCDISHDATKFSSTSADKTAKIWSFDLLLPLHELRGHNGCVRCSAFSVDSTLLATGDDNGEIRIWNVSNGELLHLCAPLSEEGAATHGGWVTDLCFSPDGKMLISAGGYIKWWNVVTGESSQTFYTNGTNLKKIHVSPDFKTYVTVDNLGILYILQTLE

[11] = inhibitors of HIV Env-driven cell fusion, dose response, cherry-pick (AID 652057); format: functional, cell-based
[12] = CEM21 lymphoblast cell cytotoxicity, dose response, cytotoxicity control for viral fusion inhibitor project, CellTiter-Glo luminescence, cherry-picked (AID 652042); format: functional, cell-based;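 note: potency for signal decrease meaning cytotoxicity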
[13] = off-target signal loss in HeLa-CEM21 co-culture – HeLa F-luc CTL cells, cherry-picked, counter-screen for HIV-1 Env fusion inhibitor project, dose response (AID 652040); format: functional, cell-based;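 note: potency for signal decrease marking cytotoxic or nonspecific inhibition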
[14] = inhibitors of clade B AD8 Env fusion, dose response, cell-based, cherry-pick (AID 652062); format: functional;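 note: luciferase signal from cell-cell fusion driven by HIV-1 clade B AD8 Env; potency is for inhibitors of fusion seen as a drop in luminescence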
[15] = test system: BJ; assay: cells; format: functional, cell-based; conditions: Homo sapiens
[16] = Luminescence-based counterscreen assay for KLF5 inhibitors: dose response cell-based high throughput screening assay to identify cytotoxic compounds using the IEC-6 intestinal epithelial cell line. [Related pubchem assays: 1700 (Primary screen.), 1834 (Confirmation screen.), 1858 (Summary AID.), 1905 (Counterscreen.)]; format: functional
[17] = cytotoxicity toward DRD oncogenic fibroblasts, dose response, cell-based, non-viral oncogenic, luminescence (AID 1934); format: functional; conditions: Homo sapiens

## Oc1c(C(c2ccccc2Cl)N2CCCC2)ccc2cccnc12 (configuration not stated)
[1]
  IC50: 5.2 µM (active)
[2]
  IC50: 4.59 µM (active)
[3]
  CC50: 9.54 µM (active)
[4]
  CC50: 17.6 µM (active)
[5]
  IC50: 13.2 µM (active)
[6]
  AC50: 5.77 µM (active)
[7]
  AC50: 46.9 µM (active)
[8]
  AC50: 6.38 µM (active)

## CCc1ccc(S(=O)(=O)/N=C2\C=C(Nc3ccc(C(=O)O)cc3)C(=O)c3ccccc32)cc1
[9]
  EC50: > 150 µM (not active)
[10]
  IC50: 9.6 µM (active)
[11]
  AC50: 8.79 µM (active)
[12]
  AC50: 6.53 µM (active)
[13]
  AC50: 1.29 µM (active)
[14]
  AC50: 3.52 µM (active)

## COc1cccc(/C=N/Nc2ccc([N+](=O)[O-])cn2)c1O
[15]
  EC50: 9.14 µM (inconclusive)
[16]
  IC50: 16.2 µM (not active)
[17]
  EC50: 3.96 µM (active)
